Where two headings read alike, the source gives them in different places.
Assays:
PA-1 cells = experiment: ATP content (ATPlite) cell viability assay in PA-1 cells; assay type: cell-based, human; details: for IC50: Homo sapiens, PA-1, confirmation screen, 48 h, read-out: Avg IC50; for Avg SI: PA-1 selective compounds, vs HEK 293T, >100 = inactive in HEK293T
[1] = tested on: 11 gynecologic cancer cell lines; experiment: qHTS ATPlite cell viability, gynecologic cancer cell lines (ovarian, cervical, placental); assay type: cell-based, human; details: for IC50: 48 h; for Average SI: selectivity index vs HEK 293T; for IC90: average IC90 over the cell lines in which the compound is active, read-out: IC90; for Cell Lines Active: number of the 11 cancer cell lines in which the compound is active (<1 μM potency, >70% efficacy)
Protocol: (§1) The ATPlite luminescence assay system assay kit was used to determine cell viability. The reagent was reconstituted and prepared as described by the manufacturer. To measure the cell death caused by the compounds, cells were cultured in 4 μl of media for 16 hours at 37°C with 5% CO2 in assay plates, followed by the addition of DMSO or 16 SOC chemotherapeutic compounds dissolved in DMSO. SOC compounds were dosed at 11 concentrations (1:3 dilution) in quadruplicate from 57.5 μM to 0.977 nM using the automated Wako 1536 Pin Tool workstation and incubated at 37°C with 5% CO2 for 24, 48, or 72 hours. Four microliters of ATPlite, the ATP monitoring reagent, was then added to each well of the assay plates using the Multidrop Combi reagent dispenser followed by incubation for 15 minutes at room temperature. The resulting luminescence was measured using the ViewLux plate reader. Data were normalized for each drug using the largest luminescence value as 100% full cell viability (0% cell killing) and to the smallest luminescence value 0% viability (100% cell killing).
(§2) A qHTS [79], in which each compound was assayed in five concentrations (0.092, 0.46, 2.3, 11.5, and 57.5 μM), was performed for the primary compound screen using the NPC [80] and NPACT drug libraries at NCATS. The OBGYN cancer and HEK 293T control cells were seeded into 1536-well assay plates at 1000 cells per 4 μl/well and incubated at 37°C in 5% CO2 for 48 hours. The ATPlite assay to determine the IC50 values for each compound was conducted as described above. Plates were processed on the fully integrated Kalypsys robotic system.

HEK 293T cells [2] = tested on: HEK 293T cells; design: method as in PMID 31498718; details: CellTiterGlo, cited from earlier work; for IC50: independent screen
HEK 293T cells [3] = experiment: cells; details: for Efficacy (%) (HEK 293T toxicity) / IC50: 48 h; for IC50: read-out: IC50 (HEK 293T toxicity)
Protocol: as §1, §2

HeLa cells = experiment: qHTS ATPlite cell viability, HeLa cells; assay type: cell-based, human; details: for Avg SI: HeLa selective compounds, vs HEK 293T; for IC50: HeLa, confirmation screen, 48 h
[4] = tested on: placental cancer cell lines (JAR, JEG-3); experiment: qHTS ATPlite cell viability, placental cancer cell lines; assay type: cell-based, human; details: for Average SI: vs HEK 293T, >100 = inactive in HEK293T
Protocol: as §1
The ATPlite assay to determine the IC50 values for each compound was conducted as described above. Plates were processed on the fully integrated Kalypsys robotic system.

[5] = tested on: ovarian cancer cell lines; experiment: qHTS ATPlite cell viability, ovarian cancer cell lines; assay type: cell-based, human; details: Ovarian cell line killer; for IC50: mean of cell lines fulfilling criteria, 48 h, read-out: Average IC50; for Average SI: vs HEK 293T, >100 = inactive in HEK293T
[6] = toxic compounds, average over all cancer cell lines, mean ± S.D.
[7] = HEK 293T, this screen (ATPlite)
[8] = Homo sapiens, JEG-3, Placental cancer cell line killer, mean of cell lines fulfilling criteria, 48 h, read-out: Average IC50
[9] = Placental cancer cell line killer

COc1c(C)c2c(c(O)c1C/C=C(\C)CCC(=O)OCCN1CCOCC1)C(=O)OC2 [Mycophenolate mofetil]
IC50 (PA-1 cells): 631 nM
Avg SI (PA-1 cells): >100
Avg SI (PA-1 cells; listed as mycophenolate mofetil): > 100

COc1ccc(-c2ccc3ncc4c(c3c2)n(-c2ccc(N3CCNCC3)c(C(F)(F)F)c2)c(=O)n4C)cn1 [NVP-BGT226]
IC50 ([1]; Homo sapiens, toxic compounds, average over all cancer cell lines, mean ± S.D., read-out: Average IC50): 5.34 ± 6.56 µM
Average SI [1, 6]: 0.20 ± 0.26
Efficacy (%) (independent screen, HEK 293T) (HEK 293T cells [2]): 115%
Independent Screen (confirmation of HEK 293T toxicity) (HEK 293T cells [2]): Confirmed toxic
IC50 (HEK 293T cells [2]): 14.5 nM
Efficacy (%) (HEK 293T toxicity) (HEK 293T cells [3]; [7]): 106%
IC50 (HEK 293T cells [3]; Homo sapiens, HEK-293T): 258 nM

COc1cc(N2CCC(N3CCN(C)CC3)CC2)ccc1Nc1ncc(Cl)c(Nc2ccccc2S(=O)(=O)C(C)C)n1 [NVP-TAE684]
IC50 ([1]; toxic compounds, average over all cancer cell lines, mean ± S.D., read-out: Average IC50): 15.7 ± 10 µM
Average SI [1, 6]: 4.87 ± 7.61
Avg SI (HeLa cells): 28.0
IC50 (HeLa cells): 835 nM
Efficacy (%) (independent screen, HEK 293T) (HEK 293T cells [2]): 126%
Independent Screen (confirmation of HEK 293T toxicity) (HEK 293T cells [2]): Confirmed toxic
IC50 (HEK 293T cells [2]): 3650 nM
Efficacy (%) (HEK 293T toxicity) (HEK 293T cells [3]; [7]): 91.8%
IC50 (HEK 293T cells [3]; [7]): 23400 nM

N=C(N)c1ccc(OCCCCCOc2ccc(C(=N)N)cc2)cc1 [Nebupent]
IC50 [4, 8]: 4.9 ± 1.02 µM
Average SI [4, 9]: >100

O=C(Nc1cccnc1)N1CCC(Cc2cccc(Oc3ccc(C(F)(F)F)cn3)c2)CC1 [PF-3845]
IC50 [4, 8]: 9.31 ± 1.15 µM
Average SI [4, 9]: >100

CC(C)CC(=O)Nc1[nH]nc2c1CN(C(=O)C1CCN(C)CC1)C2(C)C [PHA-793887]
IC50 (PA-1 cells): 194 nM
Avg SI (PA-1 cells): 12.3

COc1cccc2c1C(=O)c1c(O)c3c(c(O)c1C2=O)C[C@@](O)(C(=O)CO)C[C@@H]3O[C@H]1C[C@H](N)[C@H](O[C@@H]2CCCCO2)[C@H](C)O1 [Pirarubicin]
IC50 (PA-1 cells): 839 nM
Avg SI (PA-1 cells): 14.6

Cc1ccc(C(=O)Nc2ccc(CN3CCN(C)CC3)c(C(F)(F)F)c2)cc1C#Cc1cnc2cccnn12 [Ponantinib]
IC50 ([1]; Homo sapiens, read-out: Average IC50 (μM)): 15.9 ± 9.07 µM
Average SI [1, 6]: 3.56 ± 4.85
Efficacy (%) (independent screen, HEK 293T) (HEK 293T cells [2]): 92.6%
Independent Screen (confirmation of HEK 293T toxicity) (HEK 293T cells [2]): Confirmed toxic
IC50 (HEK 293T cells [2]): 811 nM
Efficacy (%) (HEK 293T toxicity) (HEK 293T cells [3]; [7]): 92%
IC50 (HEK 293T cells [3]; Homo sapiens, HEK-293T): 19900 nM

C=C(C)[C@H]1Cc2c(ccc3c2O[C@@H]2COc4cc(OC)c(OC)cc4[C@@H]2C3=O)O1 [Rotenone]
IC50 ([4]; Homo sapiens, JEG-3, 48 h, read-out: Average IC50 (μM)): 0.0418 ± 0.0134 µM
Average SI [4, 9]: 19.5 ± 6.26

CCc1c2c(nc3ccc(O)cc13)-c1cc3c(c(=O)n1C2)COC(=O)[C@]3(O)CC [SN-38]
IC90 [1]: 592 nM
Cell Lines Active [1]: 4

CNC(=O)c1ccccc1Nc1nc(Nc2ccc(N3CCOCC3)cc2OC)ncc1Cl [TAE226]
IC50 [5]: 5320 ± 1420 nM
Average SI [5]: 8.76 ± 2.40

CCS(=O)(=O)c1cccc(-c2cc(C(=O)NC3CCN(C)CC3)c(C)c3[nH]c4ncc(C)cc4c23)c1 [TAK 901]
Avg SI (HeLa cells): 12.6
IC50 (HeLa cells; Homo sapiens): 699 nM

CC[C@@H]1C(=O)N(C)c2cnc(Nc3ccc(C(=O)N[C@H]4CC[C@H](N5CCN(CC6CC6)CC5)CC4)cc3OC)nc2N1C(C)C [Volasertib]
IC90 ([1]; Homo sapiens): 90 nM
Cell Lines Active [1]: 4
IC50 [4, 8]: 0.0709 ± 0.00735 µM
Average SI [4, 9]: 131 ± 13.5

O=C(CCCCCCC(=O)Nc1ccccc1)NO [Vorinostat]
Efficacy (%) (independent screen, HEK 293T) (HEK 293T cells [2]): 80.2%
Independent Screen (confirmation of HEK 293T toxicity) (HEK 293T cells [2]): Confirmed toxic
Efficacy (%) (HEK 293T toxicity) (HEK 293T cells [3]; [7]): 64.7%
toxicity to HEK 293T cells (HEK 293T cells [3]; compared with suppression of the 11 gynecologic cancer cell lines): equally toxic to HEK 293T cells

C=CC(=O)Nc1cccc(Oc2nc(Nc3ccc(N4CCN(C)CC4)cc3)ncc2Cl)c1 [WZ3146]
IC50 [5]: 12300 ± 8520 nM
Average SI [5]: >100

i-Bet-151
IC50 ([4]; Placental cancer cell line killer, mean of cell lines fulfilling criteria, 48 h, read-out: Average IC50): 19.3 ± 9.13 µM
Average SI [4, 9]: >100

— paper PMC6302136, “Quantitative Chemotherapeutic Profiling of Gynecologic Cancer Cell Lines Using Approved Drugs and Bioactive Compounds^” (Translational Oncology, 2018)
